{"source": "patent US20240115545A1", "about": "“PHARMACEUTICAL COMPOSITION CONTAINING B-LAPACHONE AS ACTIVE INGREDIENT FOR PREVENTION OR TREATMENT OF CHOLESTATIC LIVER DISEASE” (CUROME BIOSCIENCES CO., LTD., priority 2020, published 2024)", "key": {"[1]": {"system": "DDC-induced cholestatic liver disease mice", "assay": "H&E histology of portal vein and bile duct lesions, preventive β-lapachone in DDC-induced cholestatic liver disease mice", "format": "in vivo", "description": "DDC-induced cholestatic liver disease mouse animal models were prepared according to the method of Elisa Pose et al. by using 8-week-old C57BL/6 male mice (Samtako, Korea). Briefly, cholestatic liver disease was induced by feeding a standard rodent diet supplemented with 0.1% (w/w) DDC for 7 or 14 days. The 12-hour light and dark cycle was maintained and animals were allowed to free access to water. The standard rodent diet included medium wheat, wheat, corn, and corn gluten flour, and soybean oil (14% protein). All animal related procedures were reviewed and approved by the Institutional Animal Care and Use Committee of Korea Research Institute of Bioscience and Biotechnology (KRIBB), KRIBB-AEC-20165). The tissue staining of the cholestatic liver disease animal models was measured through H&E staining (basic tissue staining), Sirius Red staining (collagen staining), and Masson's trichrome staining (collagen, cytoplasm, muscle fibers, etc.), and the tissue staining was measured by a skilled researcher. After the mice were fed a diet containing 0.1% DDC for 14 days, tissue staining was performed for inflammation, fibrosis, and adhesion molecules around the portal vein, and the results are shown in FIG. 1. […]"}, "[2]": {"system": "DDC-induced cholestatic liver disease mice", "assay": "Sirius Red and Masson's trichrome staining of liver connective tissue, DDC-induced cholestatic liver disease mice", "format": "in vivo", "settings": "40 and 80 mg/kg in diet, DDC 14 days", "description": "DDC-induced cholestatic liver disease mouse animal models were prepared according to the method of Elisa Pose et al. by using 8-week-old C57BL/6 male mice (Samtako, Korea). Briefly, cholestatic liver disease was induced by feeding a standard rodent diet supplemented with 0.1% (w/w) DDC for 7 or 14 days. The 12-hour light and dark cycle was maintained and animals were allowed to free access to water. The standard rodent diet included medium wheat, wheat, corn, and corn gluten flour, and soybean oil (14% protein). All animal related procedures were reviewed and approved by the Institutional Animal Care and Use Committee of Korea Research Institute of Bioscience and Biotechnology (KRIBB), KRIBB-AEC-20165). The tissue staining of the cholestatic liver disease animal models was measured through H&E staining (basic tissue staining), Sirius Red staining (collagen staining), and Masson's trichrome staining (collagen, cytoplasm, muscle fibers, etc.), and the tissue staining was measured by a skilled researcher. To investigate the preventive effect of β-Lapachone (BL) on cholestatic liver disease, the mice were fed a diet with 0 (DDC-vehicle), 40 mg/kg (DDC-BL40) and 80 mg/kg (DDC-BL80) 3 days before DDC treatment (total 17 days) and, after 3 days, were fed a diet with DDC (total 14 days). […]"}, "[3]": {"system": "inflammatory cytokine factors in the colon tissue", "assay": "mRNA levels of inflammatory cytokine factors in colon tissue of DSS mice (Example 6.2)", "format": "in vivo", "settings": "DSS + β-lapachone 80 mg/kg", "description": "After 8-week-old C57BL/6 female mice (Samtako, Korea) were divided into each group (=10), each experimental group was fed a standard rodent diet supplemented with 3% (w/w) DSS in drinking water for the first 5 days to induce acute colitis and orally administered control (vehicle), β-lapachone 40 mg/kg, and β-lapachone 80 mg/kg for 14 days.\nBy the same method as in Example 6.1, experimental groups were divided into a DSS untreated group (Control), a DSS treated group, and a DSS+β-lapachone 80 mg/kg treated group, respectively, and treated. After the end of the experiment, the mice were sacrificed to remove the colon, and the accurate colon length was measured using a Vernier caliper, and is shown FIGS. 11A and 11B. In addition, the mRNA levels of genes of interleukin-1beta (IL-1β), interleukin-6 (IL-6), interleukin-18 (IL-18), interferon-γ (INF-γ), tumor necrosis factor-α (TNF-α), tumor necrosis factor-β (TNF-β), and monocyte chemoattractant protein-1 (MCP-1), which were inflammatory cytokine factors in the colon tissue, were analyzed by a real-time polymerase chain reaction through a conventional experiment procedure, and are shown in FIG. 12."}, "[4]": {"system": "peripheral blood mononuclear cells (PBMCs)", "assay": "IL-1β and IL-18 expression in LPS and ATP treated peripheral blood mononuclear cells", "format": "cell-based, mice", "settings": "LPS 200 ng/mL and ATP, 0.5, 1, 2 μM β-lapachone, 4 hours", "description": "Considering that inflammatory cytokines mediate the pathogenic mechanism of cholestatic liver disease, the peripheral blood mononuclear cell model was used by a modified method of Boyum et al. (1968). Peripheral blood mononuclear cells isolated from healthy 8-week-old C57BL/6 male mice (Samtako, Korea) were maintained by primary culture in RPMI-1640 medium containing 10% FBS, 2 mM glutamine, 100 U penicillin, and 0.1 mg/ml streptomycin. Stable peripheral blood mononuclear cells (PBMCs) were treated with LPS at 200 ng/mL and ATP and β-lapachone at 0, 0.5, 1, 2 μM in the medium and, after 4 hours, the expression levels of IL-1β and IL-18 were investigated, and the results are shown in FIG. 15."}}, "data": [{"smiles": "CC1(C)CCC2=C(O1)c1ccccc1C(=O)C2=O", "note": "[β-lapachone]", "values": [{"measurement": "concentration dependence of lesion reduction of portal vein and bile ducts (H&E)", "setting": "[1]; 80 mg/kg (BL80) compared with 40 mg/kg (BL40)", "result": "reduced the lesions of the DDC-treated portal vein and bile ducts depending on the concentration thereof"}, {"measurement": "lesions around the portal vein (PV) and bile ducts (H&E)", "setting": "[1]; DDC-BL40 and DDC-BL80 (40 and 80 mg/kg in diet from 3 days before DDC, total 17 days; DDC 14 days) vs DDC-vehicle", "result": "significant lesion reductions"}, {"measurement": "formation of connective tissues / fibrosis progression (Sirius Red and Masson's trichrome staining)", "setting": "[2]", "result": "inhibited such fibrosis progression"}, {"measurement": "mRNA level of IL-1β in colon tissue", "setting": "[3]", "result": "significantly reduced"}, {"measurement": "mRNA level of IL-6 in colon tissue", "setting": "[3]", "result": "significantly reduced"}, {"measurement": "mRNA level of IL-18 in colon tissue", "setting": "[3]", "result": "significantly reduced"}, {"measurement": "mRNA level of INF-γ in colon tissue", "setting": "[3]", "result": "significantly reduced"}, {"measurement": "mRNA level of MCP-1 in colon tissue", "setting": "[3]", "result": "significantly reduced"}, {"measurement": "mRNA level of TNF-α in colon tissue", "setting": "[3]", "result": "significantly reduced"}, {"measurement": "mRNA level of TNF-β in colon tissue", "setting": "[3]", "result": "significantly reduced"}, {"measurement": "expression level of IL-1β increased by LPS and ATP", "setting": "[4]", "result": "reduced depending on the concentration"}, {"measurement": "expression level of IL-18 increased by LPS and ATP", "setting": "[4]", "result": "reduced depending on the concentration"}]}]}
